Laboratory results from BindingDB's records for patent US11547697 (Millennium Pharmaceuticals, 2023).

Tests used:
Assay in all cases: Inhibition Assay of PI3K
[1] = biological target: Phosphatidylinositol 4,5-bisphosphate 3-kinase catalytic subunit alpha isoform (Homo sapiens, UniProt P42336)
[2] = biological target: Phosphatidylinositol 4,5-bisphosphate 3-kinase catalytic subunit beta isoform (Homo sapiens, UniProt P42338)
[3] = biological target: T1, Phosphatidylinositol 4,5-bisphosphate 3-kinase catalytic subunit delta isoform (Homo sapiens, UniProt O00329)
T1 sequence (O00329 whole entry): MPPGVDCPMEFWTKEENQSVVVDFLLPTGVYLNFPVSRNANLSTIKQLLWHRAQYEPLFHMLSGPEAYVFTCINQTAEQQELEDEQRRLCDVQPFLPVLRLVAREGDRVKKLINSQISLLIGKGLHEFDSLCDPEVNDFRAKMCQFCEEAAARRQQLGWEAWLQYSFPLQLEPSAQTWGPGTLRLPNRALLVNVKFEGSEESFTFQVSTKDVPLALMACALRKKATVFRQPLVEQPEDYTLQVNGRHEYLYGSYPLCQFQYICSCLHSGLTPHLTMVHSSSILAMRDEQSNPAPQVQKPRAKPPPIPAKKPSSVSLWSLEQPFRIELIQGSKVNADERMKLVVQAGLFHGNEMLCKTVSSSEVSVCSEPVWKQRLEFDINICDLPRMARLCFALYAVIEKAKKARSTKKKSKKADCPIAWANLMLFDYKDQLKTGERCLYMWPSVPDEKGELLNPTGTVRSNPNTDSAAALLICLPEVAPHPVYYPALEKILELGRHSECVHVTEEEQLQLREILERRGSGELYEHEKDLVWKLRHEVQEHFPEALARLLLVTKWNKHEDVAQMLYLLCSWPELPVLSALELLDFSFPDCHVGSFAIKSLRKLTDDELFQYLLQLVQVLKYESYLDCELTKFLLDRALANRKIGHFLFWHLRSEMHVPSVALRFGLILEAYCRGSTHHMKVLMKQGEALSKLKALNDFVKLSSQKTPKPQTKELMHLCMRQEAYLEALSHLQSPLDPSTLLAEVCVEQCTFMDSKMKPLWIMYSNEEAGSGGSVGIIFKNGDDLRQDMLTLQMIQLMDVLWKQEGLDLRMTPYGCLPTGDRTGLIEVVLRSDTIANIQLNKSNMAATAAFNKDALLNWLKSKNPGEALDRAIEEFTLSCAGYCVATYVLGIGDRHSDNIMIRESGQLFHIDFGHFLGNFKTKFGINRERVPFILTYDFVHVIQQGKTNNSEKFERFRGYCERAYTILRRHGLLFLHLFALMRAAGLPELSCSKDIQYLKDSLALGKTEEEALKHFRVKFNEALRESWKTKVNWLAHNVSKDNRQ

[4] = biological target: Phosphatidylinositol 4,5-bisphosphate 3-kinase catalytic subunit gamma isoform (Homo sapiens, UniProt P48736)

Measured: IC50

Chain of Phosphatidylinositol 4,5-bisphosphate 3-kinase catalytic subunit alpha isoform (P42336 whole entry, canonical isoform): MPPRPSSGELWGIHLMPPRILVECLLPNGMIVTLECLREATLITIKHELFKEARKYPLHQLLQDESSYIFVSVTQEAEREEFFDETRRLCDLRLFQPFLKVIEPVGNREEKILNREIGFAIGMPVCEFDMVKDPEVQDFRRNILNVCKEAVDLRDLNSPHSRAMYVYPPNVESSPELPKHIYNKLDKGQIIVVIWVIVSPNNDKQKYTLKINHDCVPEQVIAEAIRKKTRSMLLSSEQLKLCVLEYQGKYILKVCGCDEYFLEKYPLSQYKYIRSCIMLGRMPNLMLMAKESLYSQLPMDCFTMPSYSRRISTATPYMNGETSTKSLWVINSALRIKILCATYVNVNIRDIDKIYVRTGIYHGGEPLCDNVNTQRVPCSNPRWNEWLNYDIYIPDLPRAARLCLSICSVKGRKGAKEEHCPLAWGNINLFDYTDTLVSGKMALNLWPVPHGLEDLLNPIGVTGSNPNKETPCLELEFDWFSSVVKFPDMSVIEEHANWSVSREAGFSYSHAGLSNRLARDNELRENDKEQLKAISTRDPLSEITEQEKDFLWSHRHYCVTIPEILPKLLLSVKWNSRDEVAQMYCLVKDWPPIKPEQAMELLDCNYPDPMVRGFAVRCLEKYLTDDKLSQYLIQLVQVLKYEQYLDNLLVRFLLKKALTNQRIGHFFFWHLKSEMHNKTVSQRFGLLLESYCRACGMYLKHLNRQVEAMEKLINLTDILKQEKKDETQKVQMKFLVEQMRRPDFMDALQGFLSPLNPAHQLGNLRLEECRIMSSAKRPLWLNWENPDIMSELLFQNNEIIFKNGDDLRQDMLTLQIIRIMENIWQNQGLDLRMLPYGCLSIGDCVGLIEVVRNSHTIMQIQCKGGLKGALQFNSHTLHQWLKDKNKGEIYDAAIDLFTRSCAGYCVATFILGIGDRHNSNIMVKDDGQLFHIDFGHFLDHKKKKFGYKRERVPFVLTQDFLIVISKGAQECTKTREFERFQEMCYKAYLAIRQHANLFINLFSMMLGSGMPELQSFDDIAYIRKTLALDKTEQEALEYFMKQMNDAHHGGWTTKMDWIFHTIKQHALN
Chain of Phosphatidylinositol 4,5-bisphosphate 3-kinase catalytic subunit gamma isoform (P48736 whole entry, canonical isoform): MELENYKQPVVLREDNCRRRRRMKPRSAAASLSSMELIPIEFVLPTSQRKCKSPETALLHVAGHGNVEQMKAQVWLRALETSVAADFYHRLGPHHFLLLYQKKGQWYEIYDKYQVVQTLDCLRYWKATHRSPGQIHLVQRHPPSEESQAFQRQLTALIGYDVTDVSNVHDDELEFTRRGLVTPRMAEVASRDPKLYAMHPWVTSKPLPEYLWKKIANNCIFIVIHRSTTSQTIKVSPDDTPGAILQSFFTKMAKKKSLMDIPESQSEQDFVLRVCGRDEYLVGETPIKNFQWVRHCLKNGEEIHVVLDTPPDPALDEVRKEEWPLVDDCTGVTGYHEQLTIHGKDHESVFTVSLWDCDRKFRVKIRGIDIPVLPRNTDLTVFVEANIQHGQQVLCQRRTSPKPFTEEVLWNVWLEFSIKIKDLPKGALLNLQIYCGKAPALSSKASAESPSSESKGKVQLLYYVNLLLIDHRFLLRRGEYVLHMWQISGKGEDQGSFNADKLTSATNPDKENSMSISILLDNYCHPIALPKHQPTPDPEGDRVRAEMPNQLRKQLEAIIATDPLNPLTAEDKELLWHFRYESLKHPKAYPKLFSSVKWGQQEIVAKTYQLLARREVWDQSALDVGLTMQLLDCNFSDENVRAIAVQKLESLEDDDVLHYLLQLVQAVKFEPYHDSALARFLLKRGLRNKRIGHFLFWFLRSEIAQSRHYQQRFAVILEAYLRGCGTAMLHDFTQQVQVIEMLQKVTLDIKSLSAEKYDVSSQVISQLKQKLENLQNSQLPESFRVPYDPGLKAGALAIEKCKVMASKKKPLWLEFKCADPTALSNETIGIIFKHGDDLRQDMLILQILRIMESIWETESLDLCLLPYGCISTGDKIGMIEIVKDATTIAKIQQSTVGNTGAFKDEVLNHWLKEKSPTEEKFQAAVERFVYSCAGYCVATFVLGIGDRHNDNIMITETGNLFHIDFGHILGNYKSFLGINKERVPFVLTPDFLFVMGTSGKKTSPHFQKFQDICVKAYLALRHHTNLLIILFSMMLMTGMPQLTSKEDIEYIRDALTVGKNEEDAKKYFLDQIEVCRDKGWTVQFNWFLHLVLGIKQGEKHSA
Chain of Phosphatidylinositol 4,5-bisphosphate 3-kinase catalytic subunit beta isoform (P42338 whole entry, canonical isoform): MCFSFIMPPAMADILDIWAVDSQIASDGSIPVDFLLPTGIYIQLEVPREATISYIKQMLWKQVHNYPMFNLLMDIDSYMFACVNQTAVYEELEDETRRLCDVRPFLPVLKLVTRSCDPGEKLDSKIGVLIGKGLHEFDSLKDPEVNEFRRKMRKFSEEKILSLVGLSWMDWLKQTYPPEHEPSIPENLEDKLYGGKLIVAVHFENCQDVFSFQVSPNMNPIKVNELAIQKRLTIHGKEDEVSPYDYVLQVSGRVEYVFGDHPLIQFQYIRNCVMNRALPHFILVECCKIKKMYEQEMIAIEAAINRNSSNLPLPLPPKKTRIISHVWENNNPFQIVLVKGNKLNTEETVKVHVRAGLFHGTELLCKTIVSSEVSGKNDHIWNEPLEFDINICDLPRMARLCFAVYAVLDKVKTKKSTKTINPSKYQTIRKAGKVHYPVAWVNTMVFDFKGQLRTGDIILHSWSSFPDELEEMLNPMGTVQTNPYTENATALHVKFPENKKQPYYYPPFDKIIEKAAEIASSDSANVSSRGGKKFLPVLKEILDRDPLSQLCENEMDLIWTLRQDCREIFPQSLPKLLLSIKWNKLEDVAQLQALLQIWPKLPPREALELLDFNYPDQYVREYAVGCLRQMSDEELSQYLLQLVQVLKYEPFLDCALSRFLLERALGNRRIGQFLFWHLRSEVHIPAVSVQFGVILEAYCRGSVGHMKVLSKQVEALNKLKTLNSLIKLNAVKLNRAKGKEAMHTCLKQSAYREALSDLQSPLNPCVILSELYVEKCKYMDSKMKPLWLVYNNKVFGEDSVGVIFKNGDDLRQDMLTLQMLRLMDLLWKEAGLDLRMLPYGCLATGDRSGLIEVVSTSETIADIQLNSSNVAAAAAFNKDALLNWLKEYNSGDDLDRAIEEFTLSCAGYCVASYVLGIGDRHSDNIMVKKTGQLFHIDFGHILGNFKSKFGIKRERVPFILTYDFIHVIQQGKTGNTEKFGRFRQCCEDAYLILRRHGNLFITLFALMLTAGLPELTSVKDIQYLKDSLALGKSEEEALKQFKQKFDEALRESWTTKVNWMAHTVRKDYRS

Nc1noc2cc(-c3ccc4ncc(C(=O)N5CCOCC5)n4c3)ccc12 [US11547697, Compound 488]
> 10 µM: all assays above

Nc1n[nH]c2c(-c3ccc4ncc(C(=O)N5CCOCC5)n4c3)cccc12 [US11547697, Compound 490]
> 10 µM: all assays above

Nc1nc2cc(-c3ccc4ncn(C(=O)N5CCOCC5)c4c3)ccc2o1 [US11547697, Compound 317]
> 10 µM: all assays above

Nc1nc2cc(-c3ccc4nc(N)c(N5CC(N6CCOCC6)C5)nc4c3)ccc2o1 [US11547697, Compound 404]
> 10 µM: all assays above

CC(=O)Nc1nc2ccc(-c3nc(N4CCOCC4)c4sc(CN5CCN(S(C)(=O)=O)CC5)cc4n3)cc2s1 [US11547697, Compound 130]
> 10 µM: all assays above

C[C@H]1CN(c2cnc3ccc(-c4cccc5c(N)nsc45)cc3n2)CCN1 [US11547697, Compound 321]
> 10 µM: all assays above
